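Dose response: 5 concentrations. Exposure: 48 h. Format: 96-well plates. Endpoint: linear interpolation; highest concentration if not reached. GI50 marks 50% less growth.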 Activity calls are given as the source filed them. Rule as the data show it: active = GI50 up to about 1.1 µM and inactive = higher.
Legend:
Assay in all cases: inhibition of tumour cell growth, NCI panel, 48 h
786-0 = tested on: 786-0
A498 = tested on: A498
A549 = tested on: A549
ACHN = tested on: ACHN
BT-549 = tested on: BT-549
CAKI-1 = tested on: CAKI-1
CCRF-CEM = tested on: CCRF-CEM
COLO 205 = tested on: COLO 205
DU-145 = tested on: DU-145
EKVX = tested on: EKVX
HCC 2998 = tested on: HCC 2998
HCT-15 = tested on: HCT-15
HL-60 = tested on: HL-60
HOP-62 = tested on: HOP-62
HOP-92 = tested on: HOP-92
HT-29 = tested on: HT-29
IGROV-1 = tested on: IGROV-1
K562 = tested on: K562
KM12 = tested on: KM12
LOX IMVI = tested on: LOX IMVI
M14 = tested on: M14
MCF7 = tested on: MCF7
MDA-MB-231 = tested on: MDA-MB-231
MDA-MB-435 = tested on: MDA-MB-435
MOLT-4 = tested on: MOLT-4
Malme-3M = tested on: Malme-3M
NCI-H226 = tested on: NCI-H226
NCI-H23 = tested on: NCI-H23
NCI-H460 = tested on: NCI-H460
NCI-H522 = tested on: NCI-H522
NCI/ADR-RES = tested on: NCI/ADR-RES
OVCAR-3 = tested on: OVCAR-3
OVCAR-4 = tested on: OVCAR-4
OVCAR-5 = tested on: OVCAR-5
OVCAR-8 = tested on: OVCAR-8
PC-3 = tested on: PC-3
RPMI-8226 = tested on: RPMI-8226
RXF 393 = tested on: RXF 393
SF-268 = tested on: SF-268
SF-295 = tested on: SF-295
SK-MEL-28 = tested on: SK-MEL-28
SK-MEL-5 = tested on: SK-MEL-5
SK-OV-3 = tested on: SK-OV-3
SN12C = tested on: SN12C
SNB-19 = tested on: SNB-19
SR = tested on: SR
SW-620 = tested on: SW-620
T47D = tested on: T47D
TK-10 = tested on: TK-10
U-251 = tested on: U-251
UACC-257 = tested on: UACC-257
UACC-62 = tested on: UACC-62
UO-31 = tested on: UO-31
HCT-116 = tested on: HCT-116
MDA-N = tested on: MDA-N
SF-539 = tested on: SF-539
SK-MEL-2 = tested on: SK-MEL-2
SNB-75 = tested on: SNB-75

## COc1ccc(/C=C2\CCC(CNc3ccc(Br)cc3)C2=O)cc1 (stereo not given)
786-0
  GI50: > 100 µM (inactive)
A498
  GI50: > 100 µM (inactive)
A549
  GI50: 93.8 µM (inactive)
ACHN
  GI50: 15.3 µM (inactive)
BT-549
  GI50: 88.7 µM (inactive)
CAKI-1
  GI50: > 100 µM (inactive)
CCRF-CEM
  GI50: 31.8 µM (inactive)
COLO 205
  GI50: 81.8 µM (inactive)
DU-145
  GI50: > 100 µM (inactive)
EKVX
  GI50: > 100 µM (inactive)
HCC 2998
  GI50: 83.9 µM (inactive)
HCT-15
  GI50: 8.45 µM
HL-60
  GI50: 24.5 µM (inactive)
HOP-62
  GI50: > 100 µM (inactive)
HOP-92
  GI50: > 100 µM (inactive)
HT-29
  GI50: > 100 µM (inactive)
IGROV-1
  GI50: > 100 µM (inactive)
K562
  GI50: 20 µM (inactive)
KM12
  GI50: 29.1 µM (inactive)
LOX IMVI
  GI50: 25.9 µM (inactive)
M14
  GI50: 65.8 µM (inactive)
MCF7
  GI50: 21.5 µM (inactive)
MDA-MB-231
  GI50: 53.3 µM (inactive)
MDA-MB-435
  GI50: > 100 µM (inactive)
MOLT-4
  GI50: 34.1 µM (inactive)
Malme-3M
  GI50: > 100 µM (inactive)
NCI-H226
  GI50: > 100 µM (inactive)
NCI-H23
  GI50: > 100 µM (inactive)
NCI-H460
  GI50: 76 µM (inactive)
NCI-H522
  GI50: > 10 µM (inactive)
NCI/ADR-RES
  GI50: > 100 µM (inactive)
OVCAR-3
  GI50: > 100 µM (inactive)
OVCAR-4
  GI50: > 100 µM (inactive)
OVCAR-5
  GI50: > 100 µM (inactive)
OVCAR-8
  GI50: > 100 µM (inactive)
PC-3
  GI50: > 100 µM (inactive)
RPMI-8226
  GI50: 5.87 µM (inactive)
RXF 393
  GI50: > 100 µM (inactive)
SF-268
  GI50: > 100 µM (inactive)
SF-295
  GI50: > 100 µM (inactive)
SK-MEL-28
  GI50: > 100 µM (inactive)
SK-MEL-5
  GI50: 80.9 µM (inactive)
SK-OV-3
  GI50: > 100 µM (inactive)
SN12C
  GI50: 10.2 µM (inactive)
SNB-19
  GI50: > 100 µM (inactive)
SR
  GI50: 24.2 µM (inactive)
SW-620
  GI50: 67.3 µM (inactive)
T47D
  GI50: 84.7 µM (inactive)
TK-10
  GI50: 57.5 µM (inactive)
U-251
  GI50: > 100 µM (inactive)
UACC-257
  GI50: > 100 µM (inactive)
UACC-62
  GI50: 34.8 µM (inactive)
UO-31
  GI50: 73.8 µM (inactive)

## N=c1c2c(-c3ccccc3)c[nH]c2ncn1N
786-0
  GI50: > 100 µM (inactive)
A498
  GI50: > 100 µM (inactive)
A549
  GI50: > 100 µM (inactive)
ACHN
  GI50: > 100 µM (inactive)
BT-549
  GI50: > 100 µM (inactive)
CAKI-1
  GI50: > 100 µM (inactive)
CCRF-CEM
  GI50: > 100 µM (inactive)
COLO 205
  GI50: > 100 µM (inactive)
EKVX
  GI50: > 100 µM (inactive)
HCC 2998
  GI50: > 100 µM (inactive)
HCT-116
  GI50: > 100 µM (inactive)
HCT-15
  GI50: > 100 µM
HL-60
  GI50: > 100 µM (inactive)
HOP-62
  GI50: > 100 µM (inactive)
HOP-92
  GI50: > 100 µM (inactive)
HT-29
  GI50: > 100 µM (inactive)
IGROV-1
  GI50: > 100 µM (inactive)
K562
  GI50: > 100 µM (inactive)
KM12
  GI50: > 100 µM (inactive)
LOX IMVI
  GI50: > 100 µM (inactive)
M14
  GI50: > 100 µM (inactive)
MCF7
  GI50: > 100 µM (inactive)
MDA-MB-231
  GI50: > 100 µM (inactive)
MDA-MB-435
  GI50: > 100 µM (inactive)
MDA-N
  GI50: > 100 µM (inactive)
MOLT-4
  GI50: > 100 µM (inactive)
NCI-H226
  GI50: > 100 µM (inactive)
NCI-H23
  GI50: > 100 µM (inactive)
NCI-H522
  GI50: > 100 µM (inactive)
NCI/ADR-RES
  GI50: > 100 µM (inactive)
OVCAR-3
  GI50: > 100 µM (inactive)
OVCAR-4
  GI50: > 100 µM (inactive)
OVCAR-5
  GI50: > 100 µM (inactive)
OVCAR-8
  GI50: > 100 µM (inactive)
PC-3
  GI50: > 100 µM (inactive)
RPMI-8226
  GI50: > 100 µM (inactive)
SF-295
  GI50: > 100 µM (inactive)
SF-539
  GI50: > 100 µM (inactive)
SK-MEL-28
  GI50: > 100 µM (inactive)
SK-MEL-2
  GI50: > 100 µM (inactive)
SK-MEL-5
  GI50: > 100 µM (inactive)
SK-OV-3
  GI50: > 100 µM (inactive)
SN12C
  GI50: > 100 µM (inactive)
SNB-19
  GI50: > 100 µM (inactive)
SNB-75
  GI50: > 100 µM (inactive)
SW-620
  GI50: > 100 µM (inactive)
T47D
  GI50: > 100 µM (inactive)
TK-10
  GI50: > 100 µM (inactive)
U-251
  GI50: > 100 µM (inactive)
UACC-257
  GI50: > 100 µM (inactive)
UACC-62
  GI50: > 100 µM (inactive)
UO-31
  GI50: > 100 µM (inactive)
